One may read the IC50 as the point on the concentration scale where inhibition reaches its midpoint. Read a high IC50 as a need for much substance.

In BindingDB's records for doi:10.1111/cbdd.12793 (Nanjing University, 2016) one finds IC50 data, which are given here for 25 molecules.

SMILES strings stand for the structures.

Sequence of Tyrosine--tRNA ligase (Q6G8J9 whole entry): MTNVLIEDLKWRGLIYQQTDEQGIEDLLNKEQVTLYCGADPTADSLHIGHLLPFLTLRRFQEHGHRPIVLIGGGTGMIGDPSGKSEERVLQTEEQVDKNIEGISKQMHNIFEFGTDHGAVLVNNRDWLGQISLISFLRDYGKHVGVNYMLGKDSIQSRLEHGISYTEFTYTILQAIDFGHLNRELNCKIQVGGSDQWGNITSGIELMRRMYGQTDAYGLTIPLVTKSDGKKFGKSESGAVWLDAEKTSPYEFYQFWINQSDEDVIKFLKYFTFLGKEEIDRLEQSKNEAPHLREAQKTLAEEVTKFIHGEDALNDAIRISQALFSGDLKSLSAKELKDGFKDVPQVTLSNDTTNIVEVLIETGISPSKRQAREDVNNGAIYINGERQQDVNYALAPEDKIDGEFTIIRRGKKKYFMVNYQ

The assay has as its target Tyrosine--tRNA ligase (Staphylococcus aureus (strain MSSA476), UniProt Q6G8J9). The experiment in a line: In vitro Enzyme Inhibition Assay. To be noted: pH 7.9. As for the experimental part: The assays were conducted at 37 °C in a mixture containing 100 mM Tris/Cl pH 7.9, 50 mM KCl, 16 mM MgCl2, 5 mM ATP, 3 mM DTT, 4 mg/ml E. coli MRE600 tRNA (Roche) and 10 μM L-tyrosine (0.3 μM L-[ring-3,5-3H] tyrosine (PerkinElmer, Specific activity: 1.48-2.22 TBq/mmol), 10 μM carrier). Above all, TyrRS (0.2 nM) was pre-incubated with kinds of concentrations inhibitor for 10 min (RT) followed by the addition of pre-warmed mixture and moved them together to 37 °C. After specific intervals, the reaction was ended by the addition of aliquots of the reaction mix into gelid 7% trichloroacetic acid and harvested onto […] hydrophilic Durapore filters (Millipore Multiscreen 96-well plates) and counted by liquid scintillation.
Consider `Cc1ccccc1-c1cc(C(=O)OCCn2c([N+](=O)[O-])cnc2C)nn1-c1ccccc1` [2-(2-Methyl-5-nitro-1H-imidazol-1-yl)-ethyl-1-phenyl-5-(o-tolyl)-1H-pyrazole-3-carboxylate (4p)], for which the half-inhibitory concentration (IC50) amounted to 4.55 µM. The value for `COc1ccc(-c2cc(C(=O)OCCn3c([N+](=O)[O-])cnc3C)nn2-c2ccccc2)cc1` [2-(2-Methyl-5-nitro-1H-imidazol-1-yl)-ethyl-5-(4-methoxyphenyl)-1-phenyl-1H-pyrazole-3-carboxylate (4f)] was 0.92 µM. `Cc1ccc(-c2cc(C(=O)OCCn3c([N+](=O)[O-])cnc3C)nn2-c2ccc(C)cc2)cc1` [2-(2-Methyl-5-nitro-1H-imidazol-1-yl)-ethyl-1,5-di-p-tolyl-1H-pyrazole-3-carboxylate (4b)] had an IC50 of 31.9 µM. Against the preceding molecule, the IC50 is about 35-fold higher. The value for `Cc1ncc([N+](=O)[O-])n1CCOC(=O)c1cc(-c2cccc(F)c2)n(-c2ccc(Cl)cc2)n1` [2-(2-Methyl-5-nitro-1H-imidazol-1-yl)-ethyl-1-(4-chlorophenyl)-5-(3-fluorophenyl)-1H-pyrazole-3-carboxylate (4y)] was 60.1 µM; that for `Cc1cccc(-c2cc(C(=O)OCCn3c([N+](=O)[O-])cnc3C)nn2-c2ccccc2)c1` [2-(2-Methyl-5-nitro-1H-imidazol-1-yl)-ethyl-1-phenyl-5-(m-tolyl)-1H-pyrazole-3-carboxylate (4v)] was 21.6 µM; that for `Cc1ccc(-c2cc(C(=O)OCCn3c([N+](=O)[O-])cnc3C)nn2-c2ccc(Cl)cc2)cc1` [2-(2-Methyl-5-nitro-1H-imidazol-1-yl)-ethyl-1-(4-chlorophenyl)-5-(p-tolyl)-1H-pyrazole-3-carboxylate (4l)] was 18.1 µM. With `Cc1ncc([N+](=O)[O-])n1CCOC(=O)c1cc(-c2ccccc2F)n(-c2ccccc2)n1` [2-(2-Methyl-5-nitro-1H-imidazol-1-yl)-ethyl-5-(2-fluorophenyl)-1-phenyl-1H-pyrazole-3-carboxylate (4t)] the figure was 95.4 µM.

Take `Cc1ncc([N+](=O)[O-])n1CCOC(=O)c1cc(-c2ccc(I)cc2)n(-c2ccccc2)n1` [2-(2-Methyl-5-nitro-1H-imidazol-1-yl)-ethyl-5-(4-iodophenyl)-1-phenyl-1H-pyrazole-3-carboxylate (4j)]: the midpoint of inhibition, the IC50, lay at 36.7 µM. The value for `Cc1ncc([N+](=O)[O-])n1CCOC(=O)c1cc(-c2ccc(Cl)cc2)n(-c2ccc(Cl)cc2)n1` [2-(2-Methyl-5-nitro-1H-imidazol-1-yl)-ethyl-1,5-bis(4-chlorophenyl)-1H-pyrazole-3-carboxylate (4n)] was 53.1 µM. In turn, `Cc1ccc(-n2nc(C(=O)OCCn3c([N+](=O)[O-])cnc3C)cc2-c2ccc(Cl)cc2)cc1` [2-(2-Methyl-5-nitro-1H-imidazol-1-yl)-ethyl-5-(4-chlorophenyl)-1-(p-tolyl)-1H-pyrazole-3-carboxylate (4d)] came in with an IC50 of 47.8 µM. This IC50 and that of the molecule before are within 1.5-fold of each other. With `Cc1ccc(-n2nc(C(=O)OCCn3c([N+](=O)[O-])cnc3C)cc2-c2ccc(I)cc2)cc1` [2-(2-Methyl-5-nitro-1H-imidazol-1-yl)-ethyl-5-(4-iodophenyl)-1-(p-tolyl)-1H-pyrazole-3-carboxylate (4e)] the figure was 40.5 µM. Take `Cc1ccc(-n2nc(C(=O)OCCn3c([N+](=O)[O-])cnc3C)cc2-c2ccc(F)cc2)cc1` [2-(2-Methyl-5-nitro-1H-imidazol-1-yl)-ethyl-5-(4-fluorophenyl)-1-(p-tolyl)-1H-pyrazole-3-carboxylate (4c)]: the IC50 is 56 µM.

As for `COc1ccc(-c2cc(C(=O)OCCn3c([N+](=O)[O-])cnc3C)nn2-c2ccc(C)cc2)cc1` [2-(2-Methyl-5-nitro-1H-imidazol-1-yl)-ethyl-5-(4-methoxyphenyl)-1-(p-tolyl)-1H-pyrazole-3-carboxylate (4a)], the IC50 amounted to 10.8 µM.

In turn, `Cc1ccc(-c2cc(C(=O)OCCn3c([N+](=O)[O-])cnc3C)nn2-c2ccccc2)cc1` [2-(2-Methyl-5-nitro-1H-imidazol-1-yl)-ethyl-1-phenyl-5-(p-tolyl)-1H-pyrazole-3-carboxylate (4g)] returned an IC50 of 60.8 µM. The value for `Cc1ncc([N+](=O)[O-])n1CCOC(=O)c1cc(-c2cccc(F)c2)n(-c2ccccc2)n1` [2-(2-Methyl-5-nitro-1H-imidazol-1-yl)-ethyl-5-(3-fluorophenyl)-1-phenyl-1H-pyrazole-3-carboxylate (4x)] was 84.1 µM; that for `Cc1ncc([N+](=O)[O-])n1CCOC(=O)c1cc(-c2ccccc2)n(-c2ccccc2)n1` [2-(2-Methyl-5-nitro-1H-imidazol-1-yl)-ethyl-1,5-diphenyl-1H-pyrazole-3-carboxylate (4r)] was 63.1 µM; that for `Cc1ncc([N+](=O)[O-])n1CCOC(=O)c1cc(-c2ccc(F)cc2)n(-c2ccc(Cl)cc2)n1` [2-(2-Methyl-5-nitro-1H-imidazol-1-yl)-ethyl-1-(4-chlorophenyl)-5-(4-fluorophenyl)-1H-pyrazole-3-carboxylate (4m)] was 64.4 µM. Molecule `Cc1ncc([N+](=O)[O-])n1CCOC(=O)c1cc(-c2ccc(I)cc2)n(-c2ccc(Cl)cc2)n1` [2-(2-Methyl-5-nitro-1H-imidazol-1-yl)-ethyl-1-(4-chlorophenyl)-5-(4-iodophenyl)-1H-pyrazole-3-carboxylate (4o)] displayed an IC50 of 13.3 µM.

For the molecule `Cc1ncc([N+](=O)[O-])n1CCOC(=O)c1cc(-c2ccc(F)cc2)n(-c2ccccc2)n1` [2-(2-Methyl-5-nitro-1H-imidazol-1-yl)-ethyl-5-(4-fluorophenyl)-1-phenyl-1H-pyrazole-3-carboxylate (4h)], the IC50 was 70 µM. Consider `Cc1ccccc1-c1cc(C(=O)OCCn2c([N+](=O)[O-])cnc2C)nn1-c1ccc(Cl)cc1` [2-(2-Methyl-5-nitro-1H-imidazol-1-yl)-ethyl-1-(4-chlorophenyl)-5-(o-tolyl)-1H-pyrazole-3-carboxylate (4q)], for which the IC50 turned out to be 5.11 µM. The value for `COc1ccc(-c2cc(C(=O)OCCn3c([N+](=O)[O-])cnc3C)nn2-c2ccc(Cl)cc2)cc1` [2-(2-Methyl-5-nitro-1H-imidazol-1-yl)-ethyl-1-(4-chlorophenyl)-5-(4-methoxyphenyl)-1H-pyrazole-3-carboxylate (4k)] was 1.67 µM; that for `Cc1ncc([N+](=O)[O-])n1CCOC(=O)c1cc(-c2ccc(Cl)cc2)n(-c2ccccc2)n1` [2-(2-Methyl-5-nitro-1H-imidazol-1-yl)-ethyl-5-(4-chlorophenyl)-1-phenyl-1H-pyrazole-3-carboxylate (4i)] was 21.2 µM; that for `Cc1cccc(-c2cc(C(=O)OCCn3c([N+](=O)[O-])cnc3C)nn2-c2ccc(Cl)cc2)c1` [2-(2-Methyl-5-nitro-1H-imidazol-1-yl)-ethyl-1-(4-chlorophenyl)-5-(m-tolyl)-1H-pyrazole-3-carboxylate (4w)] was 29.2 µM.

For the molecule `Cc1ncc([N+](=O)[O-])n1CCOC(=O)c1cc(-c2ccccc2)n(-c2ccc(Cl)cc2)n1` [2-(2-Methyl-5-nitro-1H-imidazol-1-yl)-ethyl-1-(4-chlorophenyl)-5-phenyl-1H-pyrazole-3-carboxylate (4s)], the midpoint of inhibition, the IC50, lay at 16.5 µM. The value for `Cc1ncc([N+](=O)[O-])n1CCOC(=O)c1cc(-c2ccccc2F)n(-c2ccc(Cl)cc2)n1` [2-(2-Methyl-5-nitro-1H-imidazol-1-yl)-ethyl-1-(4-chlorophenyl)-5-(2-fluorophenyl)-1H-pyrazole-3-carboxylate (4u)] was 76.2 µM.
